{
  "source": "patent US12540165B2",
  "about": "“HSP fusion protein with anti-chemorepellant agent for treatment of cancer” (The General Hospital Corporation, priority 2016, dated 2026)",
  "key": {"[1]": {"system": "40L mouse mesothelioma cell line", "assay": "40L intraperitoneal malignant mesothelioma model: tumor weight and survival (Example 5)", "assay_type": "in vivo, C57BL/6 mice", "settings": "compared to saline"}, "[2]": {"system": "Luc-AE17 mesothelioma cancer cells", "assay": "Luc-AE17 mesothelioma model, survival (Example 4)", "assay_type": "in vivo, C57BL/6 mice", "settings": "compared to saline, VIC-008 20 μg, AMD3100 1 μg/g body weight, once a week for four weeks"}, "[3]": {"system": "AE17 mouse mesothelioma cell line", "assay": "AE17 intraperitoneal malignant mesothelioma model: tumor weight and survival (Example 5)", "assay_type": "in vivo, C57BL/6 mice", "settings": "compared to saline"}, "[4]": {"system": "AE17 mouse mesothelioma cell line", "assay": "Immune profiling by flow cytometry of spleens, lymph nodes and tumors of AE17 tumor-bearing mice", "assay_type": "in vivo, C57BL/6 mice"}, "[5]": {"system": "Luc-40L mesothelioma cancer cells", "assay": "Luc-40L mesothelioma model, survival (Example 4)", "assay_type": "in vivo, C57BL/6 mice", "settings": "compared to saline, VIC-008 20 μg, AMD3100 1 μg/g body weight, once a week for four weeks"}, "[6]": {"system": "40L mouse mesothelioma cell line", "assay": "Immune profiling by flow cytometry of spleens and tumors of 40L tumor-bearing mice", "assay_type": "in vivo, C57BL/6 mice"}, "[7]": {"system": "AE17 mouse mesothelioma cell line", "assay": "Ex vivo restimulation with recombinant mesothelin, intracellular IFN-γ in CD8+ T cells, AE17 mice", "parameters": "species or system C57BL/6 mice", "settings": "compared to saline"}, "[8]": {"system": "40L mouse mesothelioma cell line", "assay": "Ex vivo restimulation with recombinant mesothelin, intracellular IFN-γ in CD8+ T cells, 40L mice", "parameters": "species or system C57BL/6 mice", "settings": "splenic CD8+ T cells, compared to saline"}, "Foxp3^+ Treg cells": {"system": "Foxp3^+ Treg cells", "settings": "AMD3100 5 μg/ml, 24 hours"}, "[9]": {"settings": "lymph nodes, AE17, compared to saline"}, "[10]": {"settings": "spleens, AE17, compared to saline"}, "[11]": {"settings": "tumors, AE17, compared to saline"}, "[12]": {"settings": "spleens, 40L, compared to saline"}, "[13]": {"settings": "tumors, 40L, compared to saline"}},
  "note": "Read-outs that look alike come from different tables or passages of the source.",
  "data": [
    {"smiles": "c1cc(CN2CCCNCCNCCCNCC2)ccc1CN1CCCNCCNCCCNCC1", "note": "[AMD3100, 1,1′-[1,4-phenylenebis(methylene)]bis[1,4,8,11-tetraazacyclotetradecane]]", "values": [
      {"measurement": "animal survival", "setting": "[1]", "value": "only modest benefit to survival"},
      {"measurement": "survival of tumor-bearing mice", "setting": "[2]", "value": "slight effect on survival"},
      {"measurement": "animal survival", "setting": "[3]", "value": "only modest benefit to survival"},
      {"measurement": "IL-2+ CD40L+ cells in the Foxp3+ CD25− Treg population", "setting": "[4]; lymph nodes of AE17 mice", "value": "significantly more cells"},
      {"measurement": "cell ratio of CD8+ T cells to Treg cells", "setting": "[4]; [9]", "value": "significantly increased"},
      {"measurement": "proportion of CD8+ T cells in total live cells", "setting": "[4]; [9]", "value": "did not increase"},
      {"measurement": "proportion of PD-1-expressing CD8+ T cells", "setting": "[4]; [9]", "value": "significantly fewer"},
      {"measurement": "ratio of CD25− cells to CD25+ cells within the Foxp3+ population", "setting": "[4]; lymph nodes, AE17 model", "value": "significantly increased"},
      {"measurement": "Treg in the lymph nodes", "setting": "[4]; lymph nodes, AE17 tumor-bearing mice", "value": "generally reduced"},
      {"measurement": "proportion of CD8+ T cells in total live cells", "setting": "[4]; [10]", "value": "did not increase"},
      {"measurement": "proportion of PD-1-expressing CD8+ T cells", "setting": "[4]; [10]", "value": "significantly fewer"},
      {"measurement": "proportion of CD8+ T cells in total live cells", "setting": "[4]; [11]", "value": "did not increase"},
      {"measurement": "proportion of PD-1-expressing CD8+ T cells", "setting": "[4]; [11]", "value": "significantly fewer"},
      {"measurement": "proportions of Treg", "setting": "[4]; [11]", "value": "significantly decreased"},
      {"measurement": "ratio of CD8+ T cells to Treg", "setting": "[4]; [11]", "value": "increased"},
      {"measurement": "survival of tumor-bearing mice", "setting": "[5]", "value": "slight effect on survival"},
      {"measurement": "proportions of Treg cells", "setting": "[6]; spleens of 40L tumor-bearing mice", "value": "did not alter"},
      {"measurement": "proportion of CD8+ T cells in total live cells", "setting": "[6]; [12]", "value": "did not increase"},
      {"measurement": "proportion of PD-1-expressing CD8+ T cells", "setting": "[6]; [12]", "value": "significantly fewer"},
      {"measurement": "IL-2+ CD40L+ cells in the Foxp3+ CD25− Treg population", "setting": "[6]; tumors of 40L mice", "value": "significantly more cells"},
      {"measurement": "ratio of CD25− cells to CD25+ cells within the Foxp3+ population", "setting": "[6]; tumors of 40L mice", "value": "significantly increased"},
      {"measurement": "proportion of CD8+ T cells in total live cells", "setting": "[6]; [13]", "value": "did not increase"},
      {"measurement": "proportion of PD-1-expressing CD8+ T cells", "setting": "[6]; [13]", "value": "significantly fewer"},
      {"measurement": "proportions of Treg", "setting": "[6]; [13]", "value": "significantly decreased"},
      {"measurement": "ratio of CD8+ T cells to Treg", "setting": "[6]; [13]", "value": "increased"},
      {"measurement": "mesothelin-specific IFN-γ expression in CD8+ T cells", "setting": "[7]; lymph node CD8+ T cells", "value": "did not enhance"},
      {"measurement": "mesothelin-specific IFN-γ expression in CD8+ T cells", "setting": "[7]; splenic CD8+ T cells", "value": "did not enhance"},
      {"measurement": "mesothelin-specific IFN-γ expression in CD8+ T cells", "setting": "[8]", "value": "did not enhance"},
      {"measurement": "ratio of the proportion of CD25− cells to CD25+ cells in the Foxp3+ CD4+ population", "setting": "Foxp3^+ Treg cells; no anti-CD3/CD28 stimulation", "value": "did not change"},
      {"measurement": "conversion of Foxp3+ CD25− Treg into IL-2+ CD40L+ cells", "setting": "Foxp3^+ Treg cells; with anti-CD3/CD28 stimulation", "value": "converted more"},
      {"measurement": "ratio of the proportion of CD25− cells to CD25+ cells in the Foxp3+ CD4+ population", "setting": "Foxp3^+ Treg cells; with anti-CD3/CD28 stimulation", "value": "significantly increased"}
    ]}
  ]
}
